What was measured:
[1] = tested on: a plurality of harmful plants; assay: Herbicidal pre-emergence action, greenhouse pot test; type: in vivo; conditions: pre-emergence method; application rate of 320 g or less of active substance per hectare
Source text: Seeds of monocotyledonous and dicotyledonous weed plants and crop plants are placed in wood-fiber pots in sandy loam and covered with soil. The compounds (I) according to the invention, formulated in the form of wettable powders (WP), are then applied as aqueous suspension or emulsion at a water application rate of 600 l/ha (converted) with the addition of 0.2% of wetting agent to the surface of the covering soil. After the treatment, the pots are placed in a greenhouse and kept under good growth conditions for the test plants. After about 3 weeks, the effect of the preparations is scored visually in comparison with untreated controls as percentages. For example, 100% activity=the plants have died, 50% herbicidal activity or damage=the plants have been reduced by 50% or the plant mass has been reduced by 50%, 0% activity=like control plants.

[2] = tested on: a plurality of harmful plants; assay: Herbicidal post-emergence action, greenhouse pot test; type: in vivo; conditions: post-emergence method
Procedure: Seeds of monocotyledonous and dicotyledonous weed and crop plants are placed in sandy loam in wood-fiber pots, covered with soil and cultivated in a greenhouse under good growth conditions. 2 to 3 weeks after sowing, the test plants are treated at the one-leaf stage, where the compounds (I) according to the invention, formulated in the form of wettable powders (WP), are applied by spraying as aqueous suspension or emulsion at a water application rate of 600 l/ha (converted) with the addition of 0.2% of wetting agent to the green parts of the plants. After the test plants have been kept in the greenhouse under optimum growth conditions for about 3 weeks, the activity of the preparations is rated visually in comparison to untreated controls in percent (%): For example, 100% activity=the plants have died, 50% herbicidal activity or damage=the plants have been reduced by 50% or the plant mass has been reduced by 50%, 0% activity=like control plants.

| Compound | herbicidal activity against a plurality of harmful plants [1] | herbicidal activity against a plurality of harmful plants [2] |
| --- | --- | --- |
| N#CC(c1ccc(F)c(F)c1)C(CC(=O)O)c1c(F)cccc1F (stereo not drawn) [Example 1-106, 4-Cyano-3-(2,6-difluorophenyl)-4-(3,4-difluorophenyl)butanoic acid] | good herbicidal activity | good herbicidal activity |
| COC(=O)CC(c1c(F)cccc1F)C(C#N)c1ccc(OC)c(OC)c1 (mixture of isomers) [Example 1-27] | good herbicidal activity | good herbicidal activity |
| COC(=O)C[C@@H](c1c(F)cccc1F)[C@@H](C#N)c1ccc(F)c(Cl)c1 [Example 2-15] | good herbicidal activity |  |
| COC(=O)CC(c1c(F)cccc1F)C(C#N)c1ccc(F)c(Br)c1 (mixture of isomers) [Example 1-232] | good herbicidal activity | good herbicidal activity |
| COC(=O)CC(c1c(F)cccc1F)C(C#N)c1ccccc1OC (mixture of isomers) [Example 1-24] | good herbicidal activity | good herbicidal activity |
| COC(=O)CC(c1c(F)cccc1F)C(C#N)c1ccc(F)c(F)c1 (stereo not drawn) [Example 1-230, methyl erythro-4-cyano-3-(2,6-difluorophenyl)-4-(3,4-difluorophenyl)butanoate] | good herbicidal activity | good herbicidal activity |
| COC(=O)CC(c1c(F)cccc1F)C(C#N)c1ccc(F)cc1 (mixture of isomers) [Example 1-3] | good herbicidal activity | good herbicidal activity |
| COC(=O)CC(c1c(F)cccc1F)C(C#N)c1ccc2ccccc2c1 (mixture of isomers) [Example 1-235] | good herbicidal activity |  |
| COC(=O)C[C@@H](c1c(F)cccc1F)[C@@H](C#N)c1ccc(F)c(C#N)c1 [Example 2-230] |  | good herbicidal activity |
| COC(=O)CC(c1c(F)cccc1F)C(C#N)c1ccc(Cl)cc1 (mixture of isomers) [Example 1-6] | good herbicidal activity | good herbicidal activity |
| COC(=O)C[C@@H](c1c(F)cccc1F)[C@@H](C#N)c1ccc(F)c(F)c1 [Example 2-11, Methyl (3R,4R)-4-cyano-3-(2,6-difluorophenyl)-4-(3,4-difluorophenyl)-butanoate] | good herbicidal activity | good herbicidal activity |
| COC(=O)CC(c1c(F)cccc1F)C(C#N)c1ccc(OC)cc1 (mixture of isomers) [Example 1-26] | good herbicidal activity | good herbicidal activity |
| COC(=O)CC(c1c(F)cccc1F)C(C#N)c1ccc(F)c(F)c1 (stereo not drawn) [Example 1-231, methyl threo-4-cyano-3-(2,6-difluorophenyl)-4-(3,4-difluorophenyl)-butanoate] | good herbicidal activity |  |
| COC(=O)CC(c1c(F)cccc1F)C(C#N)c1ccc(F)c(Cl)c1 (mixture of isomers) [Example 1-15] | good herbicidal activity | good herbicidal activity |
| COC(=O)C[C@@H](c1c(F)cccc1F)[C@@H](C#N)c1ccc(F)c(Br)c1 [Example 2-229] | good herbicidal activity | good herbicidal activity |
| COC(=O)CC(c1c(F)cccc1F)C(C#N)c1ccc(F)c(C#N)c1 (mixture of isomers) [Example 1-233] | good herbicidal activity | good herbicidal activity |
| COC(=O)CC(c1c(F)cccc1F)C(C#N)c1ccc(C(F)(F)F)c(F)c1 (mixture of isomers) [Example 1-29] | good herbicidal activity | good herbicidal activity |
| CCOC(=O)C[C@@H](c1c(F)cccc1F)[C@@H](C#N)c1ccc(F)c(F)c1 [Example 2-107, Ethyl (3R,4R)-4-cyano-3-(2,6-difluorophenyl)-4-(3,4-difluorophenyl)-butanoate] | good herbicidal activity | good herbicidal activity |
| COC(=O)CC(c1c(F)cccc1F)C(C#N)c1cc(F)cc(C(F)(F)F)c1 (mixture of isomers) [Example 1-30] | good herbicidal activity | good herbicidal activity |
| N#CC(c1cc(F)cc(C(F)(F)F)c1)C(CC(=O)O)c1c(F)cccc1F (mixture of isomers) [Example 1-228] | good herbicidal activity | good herbicidal activity |
| COC(=O)CC(c1c(F)cccc1F)C(C#N)c1ccc(F)c(F)c1 (stereo not drawn) [Example 1-11, methyl 4-cyano-3-(2,6-difluorophenyl)-4-(3,4-difluorophenyl)butanoate] | good herbicidal activity |  |
| COC(=O)CC(c1c(F)cccc1F)C(C#N)c1ccc(OC)c(F)c1 (mixture of isomers) [Example 1-28] | good herbicidal activity | good herbicidal activity |
| COC(=O)CC(c1c(F)cccc1F)C(C#N)c1cc(F)cc(F)c1 (mixture of isomers) [Example 1-12] | good herbicidal activity | good herbicidal activity |
| COC(=O)CC(c1c(F)cccc1F)C(C#N)c1ccc(Cl)c(Cl)c1 (mixture of isomers) [Example 1-16] | good herbicidal activity | good herbicidal activity |
| COC(=O)CC(c1c(F)cccc1F)C(C#N)c1cccc(I)c1 (mixture of isomers) [Example 1-19] | good herbicidal activity | good herbicidal activity |

From US20140087945A1, “SUBSTITUTED 4-CYAN-3-(2,6-DIFLUOROPHENYL)-4-PHENYLBUTANOATES, METHOD FOR THE PRODUCTION THEREOF AND USE THEREOF AS HERBICIDES AND PLANT GROWTH REGULATORS” (Bayer Intellectual Property GmbH, priority 2011, published 2014)
